Measurements: patent US6677370B2, “Compositions and uses of dictyostatin compounds” (Harbor Branch Oceanographic Institution, Inc., priority 2000, dated 2004)
Read-outs that look alike come from different tables or passages of the source.

Assays:
cellular proliferation = settings: literature; cited from earlier work
[1] = tested on: PANC-1 human pancreatic adenoma cells; experiment: Cell cycle progression of PANC-1 cells (propidium iodide flow cytometry); assay type: cell-based; settings: 100 nM, 24 hours; for percentage of cells in S phase: untreated control 5.8%; for percentage of cells in G2/M phase: untreated control 34.4%; for percentage of cells comprising the G1 population: untreated control 59.8%
Description: Cell cycle studies were initiated in order to pinpoint a specific phase within the cell cycle in which dictyostatin-1 was exerting its antiproliferative effect. PANC-1 human pancreatic adenoma cells were used as cell cycle targets to compare the effects on perturbation of the cell cycle of dictyostatin-1 to the known mitotic spindle inhibitor […]. Cell cycle analyses were performed as follows: PANC-1 cells were incubated at 37° C. in 5% CO2 in air in the presence or absence of varying concentrations of dictyostatin-1 or Taxol for 24 hours.
Cells were harvested, fixed in ethanol and stained with 0.02 mg/ml of propidium iodide (P.I.) together with 0.1 mg/ml of RNAse A. This procedure permeabilizes cells and allows entry of P.I. to stain DNA (propidium iodide also stains double stranded RNA, so RNAse is included in the preparation to exclude this possibility). Stained preparations were analyzed on a Coulter EPICS ELITE with 488 nm excitation. Fluorescence measurements and resulting DNA histograms were collected from at least 3,000 P.I. stained cells at an emission wavelength of 690 nm. Raw histogram data was further analyzed using a cell cycle analysis program (Multicycle, Phoenix Flow Systems).

[2] = tested on: MES-SA/DX5 Taxol resistant uterine carcinoma; experiment: Cytotoxicity, MTT assay, MES-SA/DX5; assay type: cell-based, human; settings: for IC50: Homo sapiens, read-out: IC50 (Std dev) MES-SA/DX5; for Resistance, MES-SA/DX5 relative to MES-SA: ratio of IC50 values, resistant vs sensitive line; for resistance of MES-SA/DX5 cells: resistant vs Taxol-sensitive counterpart
Description: (§1) The cytotoxicity of dictyostatin-1 for various Taxol resistant and sensitive cell lines was compared to that of Taxol. The cell lines used were A549 human adenocarcinoma, MCF-7 human breast carcinoma, MCF-7ADR multi-drug resistant (Taxol resistant) human breast carcinoma, MES-SA human uterine carcinoma and MES-SA/DX5 Taxol resistant uterine carcinoma. All cell lines were maintained in Roswell Park Memorial Institute (RPMI) medium 1640 supplemented with 100 U/ml penicillin, […] streptomycin, 60 mg/ml 1-glutamine, 18 mM HEPES, 0.05 mg/ml gentamicin (Life Technologies, Gaithersburg, Md.) and 10% fetal bovine serum and cultured in plastic tissue culture flasks at 37° C. in humidified air containing 5% CO2. Stock cultures of cells were subcultured 1:10 every 3 to 4 days. To assess the antiproliferative effects of agents against the cells, 200 μl cultures (96-well tissue culture plates, Nunc, Denmark) were established at 1×10^5 cells/mL in TCM or TCM containing the test agent at 0.03-5.0 μg/ml. After 72 -h exposures, the effects of dictyostatin-1 and Taxol on cell proliferation were quantitated and IC50 values determined as follows: 75 μl of warm growth media containing 5 mg/ml 3-[4,5-dimethylthiazol-2-yl]-2,5-diphenyltetrazolium bromide (MTT) (M. C. Alley et al. (1988) Cancer Res. 48:589) was added to each well, cultures returned to the incubator, and left undisturbed for 3 hours. To spectrophotometrically quantitate formation of reduced formazan, plates are centrifuged (500×g, 10 minutes), culture fluids removed by aspiration, and 200 μl of acidified isopropanol (2 ml concentrated HC1/liter isopropanol) added per well. The absorbance of the resulting solutions is measured in a plate reader (Tecan Spectra SLT; TECAN U.S., Research Triangle Park, N.C.) at 570 nm and a 650 nm reference filter. The absorbance of tests wells is divided by the absorbance of drug-free wells, and the concentration of agent that results in 50% of the absorbance of untreated cultures (IC50) is determined by linear regression of logit-transformed data (D. J. Finney, Statistical Method in Biological Assay, Third Ed., pp.316-348, Charles Griffin Co., London, 1978). A linear relationship between tumor cell number and formazan production has been routinely observed over the range of cell densities observed in these experiments. The two standard drug controls (indicated above) are included in each assay as a check to monitor the drug sensitivity of each of the cell lines and IC50 values are determined for each drug-cell combination.

[3] = tested on: A549 human adenocarcinoma; experiment: Cytotoxicity, MTT assay, A549; assay type: cell-based; settings: read-out: IC50 (Std dev) A549
Description: (§2) The cytotoxicity of dictyostatin-1 for various Taxol resistant and sensitive cell lines was compared to that of Taxol. The cell lines used were A549 human adenocarcinoma, MCF-7 human breast carcinoma, MCF-7ADR multi-drug resistant (Taxol resistant) human breast carcinoma, MES-SA human uterine carcinoma and MES-SA/DX5 Taxol resistant uterine carcinoma. All cell lines were maintained in Roswell Park Memorial Institute (RPMI) medium 1640 supplemented with 100 U/ml penicillin, […] streptomycin, 60 mg/ml 1-glutamine, 18 mM HEPES, 0.05 mg/ml gentamicin (Life Technologies, Gaithersburg, Md.) and 10% fetal bovine serum and cultured in plastic tissue culture flasks at 37° C. in humidified air containing 5% CO2. […] To spectrophotometrically quantitate formation of reduced formazan, plates are centrifuged (500×g, 10 minutes), culture fluids removed by aspiration, and 200 μl of acidified isopropanol (2 ml concentrated HC1/liter isopropanol) added per well. The absorbance of the resulting solutions is measured in a plate reader (Tecan Spectra SLT; TECAN U.S., Research Triangle Park, N.C.) at 570 nm and a 650 nm reference filter. […] The two standard drug controls (indicated above) are included in each assay as a check to monitor the drug sensitivity of each of the cell lines and IC50 values are determined for each drug-cell combination.

[4] = tested on: MCF-7 human breast carcinoma; experiment: Cytotoxicity, MTT assay, MCF-7; assay type: cell-based; settings: read-out: IC50 (Std dev) MCF-7
Description: as §2

[5] = tested on: MCF-7ADR multi-drug resistant (Taxol resistant) human breast carcinoma; experiment: Cytotoxicity, MTT assay, MCF-7/ADR; assay type: cell-based; settings: for IC50: Homo sapiens, NCI/ADR-RES, read-out: IC50 (Std dev) MCF-7/ADR; for Resistance, MCF-7/ADR relative to MCF-7: ratio of IC50 values, resistant vs sensitive line; for resistance of MCF-7ADR cells: resistant vs Taxol-sensitive counterpart
Description: as §1

[6] = tested on: MES-SA human uterine carcinoma; experiment: Cytotoxicity, MTT assay, MES-SA; assay type: cell-based; settings: read-out: IC50 (Std dev) MES-SA
Description: as §2

[7] = tested on: PANC-1 human pancreatic adenocarcinoma cells; experiment: Immunofluorescent detection of effects on the microtubule matrix (anti-alpha-tubulin); assay type: cell-based; settings: PANC-1 cells, 100 nM, overnight
Description: Dictyostatin-1 was evaluated as to its effects on the microtubule network of cells using anti-alpha-tubulin monoclonal antibodies.
PANC-1 human pancreatic adenocarcinoma cells were maintained in tissue culture media (TCM=Roswell Park Memorial Institute (RPMI) medium 1640 supplemented with 100 U/ml penicillin, […] streptomycin, 60 mg/ml 1-glutamine, 18 mM HEPES, 0.05 mg/ml gentamicin and 10% fetal bovine serum) and cultured in plastic culture flasks at 37° C. in humidified air containing 5% CO2. Stock cultures of PANC-1 cells were subcultured 1:10 every 3 to 4 days. On day 1, 1.25×10^5 PANC-1 cells were sub-cultured in TCM overnight at 37° C. in 5% CO2 on 22 mm^2 coverslips in 6-well microtiter plates. On day 2, TCM was removed and replaced with various concentrations of dictyostatin-1, or Taxol, in TCM or TCM without drug (control) and incubated overnight at 37° C. in 5% CO2. On day 3, TCM was removed and cells attached to coverslips were fixed with a 3.7% formaldehyde solution in Dulbecco's PBS for 10 minutes at room temperature. Cells were permeabilized with a 2% Triton X-100 solution, 2 ml per well, for 5 minutes at room temperature and washed twice in Dulbecco's PBS prior to staining. […]

[8] = tested on: purified bovine brain tubulin; experiment: Polymerization of purified tubulin (optical density at 350 nm); assay type: biochemical; settings: 10 μM
Description: Polymerization of purified bovine brain tubulin (Cytoskeleton Inc., Denver, Co.) was followed by changes in the optical density of tubulin solutions at 350 nm in a Hitachi U-3010 spectrophotometer equipped with a SPR-10 electronic thermostatted cell holder. Stock solutions of tubulin were diluted on ice in G-PEM buffer (1 mM GTP, 80 mM PIPES (piperazine-N,N′-bis(2-ethanesulfonic acid]sesquisodium salt), 1 mM EGTA (ethylene glycol-bis(b-amine ethyl ether) N,N,N,N′-tetra acetic acid), 0.5 mM magnesium chloride; pH 6.8) to a final concentration of 1 mg/ml. The instrument was zeroed on this solution at 4° C. Dictyostatin-1, was then added to the tubulin to a final concentration of 10 μM and quickly mixed. The polymerization was monitored by observing light scattering changes in optical density at 350 nm using the spectrophotometer. The temperature was varied for a time period of […] beginning at 4° C. for 1 minute, then linearly ramping to 35° C. over 30 minutes, with a hold of one minute at 35° C., then linearly decreasing to 4° C. over 15 minutes, with this temperature being maintained for an additional 15 minutes. Absorbance was measured and recorded over the entire time period.

| Compound | IC50 values, inhibition of cellular proliferation (cellular proliferation) | percentage of cells in S phase [1] [%] | percentage of cells in G2/M phase [1] [%] | percentage of cells comprising the G1 population [1] [%] | Resistance, MES-SA/DX5 relative to MES-SA [2] [×] | resistance of MES-SA/DX5 cells [2] [fold] | Resistance, MCF-7/ADR relative to MCF-7 [5] [×] | resistance of MCF-7ADR cells [5] [fold] | effect on microtubule network (bundling) [7] | further results |
| --- | --- | --- | --- | --- | --- | --- | --- | --- | --- | --- |
| C=C1CC(C)C[C@@H]2CC=C[C@@H](C/C=C\C(=O)O[C@@H]3C[C@H](O[C@@H]3/C=C/[C@H]3CC(C)=CCO3)[C@H](O)C(O)C1)O2 (stereo partly drawn) [isolaulimalide] | low micromolar range |  |  |  |  |  |  |  |  |  |
| CC(=O)O[C@H]1C(=O)[C@@]2(C)[C@H]([C@H](OC(=O)c3ccccc3)[C@]3(O)C[C@H](OC(=O)[C@H](O)[C@@H](NC(=O)c4ccccc4)c4ccccc4)C(C)=C1C3(C)C)[C@]1(OC(C)=O)CO[C@@H]1C[C@@H]2O [Taxol] |  | 27 | 47 | 26 | 501 | 501 | 1332 | 1332 | characteristic formation of microtubular “bundles” but also a substantial amount of “non-bundled” microtubular material still remained in the cytoplasm | IC50 ([2]; MES-SA/Dx5, 72-h exposure, MTT): 1650 nM; IC50 ([3]; A549, 72-h exposure, MTT): 5.13 nM; IC50 ([4]; MCF7, 72-h exposure, MTT): 2.5 nM; IC50 ([5]; 72-h exposure, MTT): 3330 nM; IC50 ([6]; 72-h exposure, MTT): 3.3 nM |
| C=C1C[C@H](C)C[C@@H]2CC=C[C@@H](C/C=C\C(=O)O[C@H]([C@@H](O)/C=C/[C@@H]3CC(C)=CCO3)C[C@@H]3O[C@H]3[C@@H](O)C1)O2 [Laulimalide] | low nanomolar range |  |  |  |  |  |  |  |  |  |
| C=C/C=C\C(C)C1OC(=O)/C=C\C=C\C(C)C(O)CC(O)/C=C\C(C)C(O)C(C)CC(C)CCC(O)C1C (stereo not drawn) [Dictyostatin-1] |  | 30 | 35 | 36 | 3 | 3 | 13 | 13 | extensive microtubule bundling resulting in almost complete depletion of non-bundled microtubular material in the cytoplasm | IC50 ([2]; MES-SA/Dx5, 72 h): 11 nM; IC50 ([3]; A549, 72 h): 0.95 nM; IC50 ([4]; MCF7, 72 h): 1.5 nM; IC50 ([5]; 72 h): 20 nM; IC50 ([6]; 72 h): 4.1 nM; stability of polymerized tubulin on cooling ([8]; temperature decreased from 35° C. to 4° C.): did not substantially depolymerize upon reduction of the temperature; induction of tubulin polymerization ([8]; tubulin 1 mg/ml, temperature ramp 4° C. to 35° C.): induced tubulin polymerization with a maximum polymerization level reached at 35 °C |
